Data published in PubChem BioAssay AID248 (DTP/NCI, 2004).
“And” between values parts separate entries of the source, which are not always exact repeats. Identical values can stand only once. Toxic doses and inconclusive results are not listed. Rule as the data show it: active = T/C of 150% or more; inactive = T/C below 125%.

System: L1210 leukemia ip in BDF1 mice, survival T/C
Assay: NCI In Vivo Anticancer Drug Screen. Data for tumor model L1210 Leukemia (intraperitoneal) in B6D2F1 (BDF1) mice
Conditions: endpoint: mean survival time, higher = longer survival
Outline: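 Ratio derived from survival: compound-dosed mice over vehicle-dosed mice, all bearing a transplantable tumor.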

[1] = dose: 100.0 mg/kg/injection, schedule: Q04DX003 (ip), vehicle: Klucel (hydroxypropylcellulose) (HPC)
[2] = dose: 200.0 mg/kg/injection, schedule: Q04DX003 (ip), vehicle: Klucel (hydroxypropylcellulose) (HPC)
[3] = dose: 400.0 mg/kg/injection, schedule: Q04DX003 (ip), vehicle: Klucel (hydroxypropylcellulose) (HPC)
[4] = dose: 100.0 mg/kg/injection, schedule: Q01DX001 (ip), vehicle: saline
[5] = dose: 200.0 mg/kg/injection, schedule: Q01DX001 (ip), vehicle: saline
[6] = dose: 400.0 mg/kg/injection, schedule: Q01DX001 (ip), vehicle: saline
[7] = dose: 100.0 mg/kg/injection, schedule: Q01DX009 (ip), vehicle: Klucel (hydroxypropylcellulose) (HPC)
[8] = dose: 100.0 mg/kg/injection, schedule: Q04DX002 (ip), vehicle: Klucel (hydroxypropylcellulose) (HPC)
[9] = dose: 200.0 mg/kg/injection, schedule: Q01DX001 (ip), vehicle: Klucel (hydroxypropylcellulose) (HPC)
[10] = dose: 200.0 mg/kg/injection, schedule: Q01DX009 (ip), vehicle: Klucel (hydroxypropylcellulose) (HPC)
[11] = dose: 200.0 mg/kg/injection, schedule: Q04DX002 (ip), vehicle: Klucel (hydroxypropylcellulose) (HPC)
[12] = dose: 400.0 mg/kg/injection, schedule: Q01DX001 (ip), vehicle: Klucel (hydroxypropylcellulose) (HPC)
[13] = dose: 400.0 mg/kg/injection, schedule: Q01DX009 (ip), vehicle: Klucel (hydroxypropylcellulose) (HPC)
[14] = dose: 400.0 mg/kg/injection, schedule: Q04DX002 (ip), vehicle: Klucel (hydroxypropylcellulose) (HPC)
[15] = dose: 100.0 mg/kg/injection, schedule: Q04DX003 (ip), vehicle: saline
[16] = dose: 200.0 mg/kg/injection, schedule: Q04DX003 (ip), vehicle: saline
[17] = dose: 400.0 mg/kg/injection, schedule: Q04DX003 (ip), vehicle: saline
[18] = dose: 100.0 mg/kg/injection, schedule: Q01DX001 (ip), vehicle: Klucel (hydroxypropylcellulose) (HPC)
[19] = dose: 100.0 mg/kg/injection, schedule: Q04DX002 (ip), vehicle: saline
[20] = dose: 200.0 mg/kg/injection, schedule: Q04DX002 (ip), vehicle: saline

Measured: T/C

COc1cc2c(cc1OC)C(=O)C(C(=O)c1ccccc1)C2 (stereo not given)
inactive: [1] 89 % of control | [2] 109 % of control | [3] 94 % of control

CSc1n[n+](-c2ccccc2)cs1
inactive: [4] 103 % of control | [5] 103 % of control | [6] 100 % of control

CC1(C)N=C(N)N=C(N)N1c1cccc(CCCCc2c(Cl)cccc2Cl)c1
inactive: dose: 25.0 mg/kg/injection, schedule: Q01DX001 (ip), vehicle: saline 105 % of control | dose: 50.0 mg/kg/injection, schedule: Q01DX001 (ip), vehicle: saline 86 % of control | [4] 95 % of control

NC(=S)N/N=C\c1nccc2ccsc12
inactive: dose: 100.0 mg/kg/injection, schedule: Q04DX002 (ip), vehicle: saline with Tween-80 113 % of control | dose: 200.0 mg/kg/injection, schedule: Q04DX002 (ip), vehicle: saline with Tween-80 92 % of control | dose: 400.0 mg/kg/injection, schedule: Q04DX002 (ip), vehicle: saline with Tween-80 103 % of control

COc1ccccc1C(=O)NC(=S)Nc1ccc(Cl)c(Cl)c1
inactive: [7] 96 % of control and 87 % of control | [8] 95 % of control and 88 % of control | [1] 94 % of control | [9] 86 % of control | [10] 96 % of control and 106 % of control | [11] 98 % of control and 91 % of control | [2] 92 % of control | [12] 107 % of control | [13] 102 % of control | [14] 98 % of control and 91 % of control | [3] 102 % of control

NC1=NC(=O)C(c2ccccc2)(c2ccccc2)S1
inactive: dose: 100.0 mg/kg/injection, schedule: Q01DX001 (ip), vehicle: carboxymethylcellulose (CMC) 91 % of control | [7] 97 % of control | [8] 94 % of control | dose: 200.0 mg/kg/injection, schedule: Q01DX001 (ip), vehicle: carboxymethylcellulose (CMC) 98 % of control | [10] 97 % of control | [11] 90 % of control | dose: 400.0 mg/kg/injection, schedule: Q01DX001 (ip), vehicle: carboxymethylcellulose (CMC) 91 % of control | [13] 97 % of control | [14] 97 % of control

O=C(OCCBr)c1ccc(Cl)cc1
inactive: [15] 101 % of control | [16] 97 % of control | [17] 103 % of control

Cc1c(Cl)c(Cl)cc([N+](=O)[O-])c1Cl
inactive: dose: 66.0 mg/kg/injection, schedule: Q01DX009 (sc), vehicle: olive oil, sesame oil, peanut oil 100 % of control | dose: 100.0 mg/kg/injection, schedule: Q01DX009 (sc), vehicle: olive oil, sesame oil, peanut oil 98 % of control | dose: 100.0 mg/kg/injection, schedule: Q04DX003 (sc), vehicle: olive oil, sesame oil, peanut oil 105 % of control | dose: 150.0 mg/kg/injection, schedule: Q01DX009 (sc), vehicle: olive oil, sesame oil, peanut oil 102 % of control | dose: 200.0 mg/kg/injection, schedule: Q01DX009 (sc), vehicle: olive oil, sesame oil, peanut oil 94 % of control | dose: 200.0 mg/kg/injection, schedule: Q04DX003 (sc), vehicle: olive oil, sesame oil, peanut oil 106 % of control | dose: 400.0 mg/kg/injection, schedule: Q01DX009 (sc), vehicle: olive oil, sesame oil, peanut oil 105 % of control | dose: 400.0 mg/kg/injection, schedule: Q04DX003 (sc), vehicle: olive oil, sesame oil, peanut oil 97 % of control

CC(C)(C#CC(C)(C)OC(=O)Nc1ccccc1)OC(=O)Nc1ccccc1
inactive: [4] 98 % of control | [5] 95 % of control | [6] 101 % of control

C[N+](C)(C)CC[N+](C)(C)C
inactive: dose: 100.0 mg/kg/injection, schedule: Q01DX009 (ip), vehicle: saline 108 % of control | [15] 100 % of control | dose: 200.0 mg/kg/injection, schedule: Q01DX009 (ip), vehicle: saline 106 % of control | [16] 110 % of control | dose: 400.0 mg/kg/injection, schedule: Q01DX009 (ip), vehicle: saline 100 % of control | [17] 97 % of control

O=C(NC(CS(=O)(=O)O)C(=O)O)OCc1ccccc1 (stereo not given)
inactive: [18] 93 % of control | [1] 93 % of control | [9] 97 % of control | [2] 95 % of control | [12] 91 % of control

CC(C)(C)CC(C)(C)c1ccc(OCCOc2ccc(C(N)=O)cc2[N+](=O)[O-])cc1
inactive: [15] 94 % of control | [16] 105 % of control | [17] 97 % of control

c1ccc2c(c1)NC(c1cccc3ccccc13)S2 (stereo not given)
inactive: [4] 94 % of control | [5] 100 % of control | [6] 94 % of control

NCCNC12CC3CC(CC(C3)C1)C2
inactive: [19] 113 % of control | [20] 107 % of control

CC1(CO)CCCC2(C)c3cc(O)ccc3CCC12 (stereo not given)
inactive: dose: 100.0 mg/kg/injection, schedule: Q01DX009 (ip), vehicle: acetone 90 % of control | [15] 97 % of control | [16] 97 % of control | [17] 97 % of control

COC1OC(CO)C2OC(C)(C)OC2C1O (stereo not given)
inactive: [19] 93 % of control | [20] 101 % of control | dose: 400.0 mg/kg/injection, schedule: Q04DX002 (ip), vehicle: saline 104 % of control

CC(C)Oc1ccc(C(N)=S)c2ccccc12
inactive: [18] 105 % of control | [9] 109 % of control | [12] 102 % of control

Cc1cc(C)c(C(N)=O)c(N)n1
inactive: [1] 105 % of control | [2] 90 % of control | [3] 106 % of control

COc1ccc2c3c1OC1C(O)=CCC4[C@H](C2)N(C)CC[C@@]314 (stereo not given in full)
inactive: [4] 95 % of control | [5] 106 % of control

CS(=O)(=O)OCCN(CCOS(C)(=O)=O)c1ccc(C=Nc2cccc(Br)c2)c(Cl)c1
inactive: [1] 111 % of control | [2] 111 % of control | [3] 120 % of control

OC(CCl)COCC#Cc1ccccc1 (stereo not given)
inactive: dose: 100.0 mg/kg/injection, schedule: Q01DX009 (ip), vehicle: saline sonified 93 % of control | dose: 100.0 mg/kg/injection, schedule: Q04DX003 (ip), vehicle: saline sonified 101 % of control | dose: 200.0 mg/kg/injection, schedule: Q01DX009 (ip), vehicle: saline sonified 96 % of control | dose: 200.0 mg/kg/injection, schedule: Q04DX003 (ip), vehicle: saline sonified 93 % of control | dose: 400.0 mg/kg/injection, schedule: Q01DX009 (ip), vehicle: saline sonified 93 % of control | dose: 400.0 mg/kg/injection, schedule: Q04DX003 (ip), vehicle: saline sonified 92 % of control

Nc1cc(Cl)ccc1NCCO
inactive: dose: 33.0 mg/kg/injection, schedule: Q01DX009 (ip), vehicle: saline 101 % of control | dose: 66.0 mg/kg/injection, schedule: Q01DX009 (ip), vehicle: saline 86 % of control | dose: 132.0 mg/kg/injection, schedule: Q01DX001 (ip), vehicle: saline 97 % of control and 111 % of control | dose: 132.0 mg/kg/injection, schedule: Q04DX003 (ip), vehicle: acetone 97 % of control | [5] 97 % of control and 105 % of control | dose: 300.0 mg/kg/injection, schedule: Q01DX001 (ip), vehicle: saline 100 % of control and 105 % of control
